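Compound exposure: 48 hours, 5 concentrations, 96-well plates. GI50 = concentration required for 50% inhibition of growth.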 Active and inactive are the calls of the source. Rule as the data show it: active = GI50 up to about 1.1 µM and inactive = higher.
Key:
Experiment in all cases: NCI-60 cell line screen, 48 h
[1] = tested on: LOX IMVI
[2] = tested on: 786-0
[3] = tested on: HL-60
[4] = tested on: RXF 393
[5] = tested on: RPMI-8226
[6] = tested on: NCI-H226
[7] = tested on: SK-MEL-5
[8] = tested on: OVCAR-8
[9] = tested on: NCI/ADR-RES
[10] = tested on: HCT-116
[11] = tested on: IGROV-1
[12] = tested on: A549
[13] = tested on: MDA-MB-435
[14] = tested on: CCRF-CEM
[15] = tested on: PC-3
[16] = tested on: MCF7
[17] = tested on: SF-295
[18] = tested on: SK-OV-3
[19] = tested on: HT-29
[20] = tested on: K562

Compound | GI50 [1] | GI50 [2] | GI50 [3] | GI50 [4] | GI50 [5] | GI50 [6] | GI50 [7] | GI50 [8] | GI50 [9] | GI50 [10] | GI50 [11] | GI50 [12] | GI50 [13] | GI50 [14] | GI50 [15] | GI50 [16] | GI50 [17] | GI50 [18] | GI50 [19] | GI50 [20]
Cc1nc(O)nc(NNCc2ccc(Cl)cc2)c1C(=O)Nc1ccc(Cl)cc1 | > 100 µM (inactive) | > 100 µM (inactive) | > 100 µM (inactive) | > 100 µM (inactive) | > 100 µM (inactive) | > 100 µM (inactive) | > 100 µM (inactive) | > 100 µM (inactive) | > 100 µM (inactive) | > 100 µM (inactive) | > 100 µM (inactive) | > 100 µM (inactive) | 88.1 µM (inactive) | > 100 µM (inactive) | > 100 µM (inactive) | > 100 µM (inactive) | > 100 µM (inactive) | > 100 µM (inactive) | – | –
CCC(C#N)N(Cc1ccc(CN(C(=O)c2ccccc2)C(C#N)CC)cc1)C(=O)c1ccccc1 (stereo not drawn) | 15.9 µM (inactive) | 19.2 µM (inactive) | 29.8 µM (inactive) | 28.1 µM (inactive) | 14.5 µM (inactive) | 32.5 µM (inactive) | 12.8 µM (inactive) | 31.6 µM (inactive) | 18.2 µM (inactive) | 17.6 µM (inactive) | 18.4 µM (inactive) | 20.6 µM (inactive) | 25.5 µM (inactive) | 17.8 µM (inactive) | 26 µM (inactive) | 19.2 µM (inactive) | 17.6 µM (inactive) | 23.9 µM (inactive) | 14.7 µM (inactive) | 13.9 µM (inactive)
CCOC(=O)c1sc2nc(SC)nc(Nc3ccc4c(c3)OCO4)c2c1N | > 100 µM (inactive) | 21.6 µM (inactive) | > 100 µM (inactive) | 10.9 µM (inactive) | 53.8 µM (inactive) | 71.3 µM (inactive) | 44.1 µM (inactive) | – | 64.6 µM (inactive) | > 100 µM (inactive) | > 100 µM (inactive) | 68.9 µM (inactive) | > 100 µM (inactive) | 50.7 µM (inactive) | 37.8 µM (inactive) | 30.6 µM (inactive) | 16 µM (inactive) | – | – | 81.1 µM (inactive)
[BH3-][P+]1(CC[P@@+]([BH3-])(c2ccccc2)c2ccccc2OC)[C@@H](C)[C@@H](O)[C@H](O)[C@@H]1C (stereo partly drawn) | 2.44 µM (inactive) | 27.2 µM (inactive) | 23.2 µM (inactive) | 16.4 µM (inactive) | 23.4 µM (inactive) | 17.3 µM (inactive) | 15.7 µM (inactive) | 17.5 µM (inactive) | 16.5 µM (inactive) | 17.7 µM (inactive) | 17.3 µM (inactive) | 14.1 µM (inactive) | 16.7 µM (inactive) | 24.2 µM (inactive) | 15 µM (inactive) | 18.2 µM (inactive) | 15.8 µM (inactive) | 22.8 µM (inactive) | 22.6 µM (inactive) | 26.1 µM (inactive)
C=CCC(CNC(=O)OCc1ccccc1)O[Si](C)(C)C(C)(C)C (stereo not drawn) | 23.4 µM (inactive) | 29.4 µM (inactive) | 20.1 µM (inactive) | 17.3 µM (inactive) | 20 µM (inactive) | 25.9 µM (inactive) | 16.6 µM (inactive) | 45.3 µM (inactive) | 36.9 µM (inactive) | 20.8 µM (inactive) | 27.4 µM (inactive) | 30.1 µM (inactive) | 38.5 µM (inactive) | 28.3 µM (inactive) | 30.3 µM (inactive) | 22.3 µM (inactive) | 35.2 µM (inactive) | 61.5 µM (inactive) | 18 µM (inactive) | 23.6 µM (inactive)
O=C1CCCC2=C1CC1=C(CCCC1=O)N2c1ccc(-c2ccccc2)cc1 | > 100 µM (inactive) | > 69.7 µM (inactive) | > 29.6 µM (inactive) | > 24.6 µM (inactive) | > 100 µM (inactive) | > 100 µM (inactive) | > 100 µM (inactive) | > 100 µM (inactive) | > 100 µM (inactive) | > 100 µM (inactive) | > 100 µM (inactive) | > 100 µM (inactive) | > 100 µM (inactive) | > 100 µM (inactive) | > 100 µM (inactive) | > 100 µM (inactive) | > 100 µM (inactive) | > 76.9 µM (inactive) | > 100 µM (inactive) | > 100 µM (inactive)
COC(=O)C1=C(O)C(C(=O)OC)[C@]2(O)[C@H](C(=O)OC)[C@H]1C[C@@H](c1ccc(Cl)cc1)[C@H]2C(=O)OC (stereo partly drawn) | 10.7 µM (inactive) | 6.41 µM (inactive) | 1.75 µM (inactive) | 4.62 µM (inactive) | 4.06 µM (inactive) | 8.18 µM (inactive) | 6.41 µM (inactive) | 5.89 µM (inactive) | 3.29 µM (inactive) | 5.28 µM (inactive) | 14.5 µM (inactive) | 5.64 µM (inactive) | 3.67 µM (inactive) | 2.3 µM (inactive) | 4.65 µM (inactive) | 4.07 µM (inactive) | 4.28 µM (inactive) | 2.7 µM (inactive) | 12 µM (inactive) | 4.27 µM (inactive)
CCOC(=O)/C(C(=O)Nc1ccc(F)cc1)=C(/N)N1CCCC1 | > 100 µM (inactive) | > 100 µM (inactive) | > 100 µM (inactive) | > 100 µM (inactive) | > 100 µM (inactive) | > 100 µM (inactive) | – | > 100 µM (inactive) | > 100 µM (inactive) | > 100 µM (inactive) | > 100 µM (inactive) | > 100 µM (inactive) | > 100 µM (inactive) | > 100 µM (inactive) | > 100 µM (inactive) | > 100 µM (inactive) | > 100 µM (inactive) | > 100 µM (inactive) | > 100 µM (inactive) | > 100 µM (inactive)
Cc1c2c3ccccc3nc-2n(C)c2ccccc12 | – | 2.02 µM (inactive) | 3.29 µM (inactive) | 1.99 µM (inactive) | 2.7 µM (inactive) | 2.77 µM (inactive) | 0.437 µM (active) | 1.69 µM (inactive) | 2.01 µM (inactive) | 0.495 µM (active) | 2.32 µM (inactive) | 1.57 µM (inactive) | 2.9 µM (inactive) | 0.724 µM (active) | 2.17 µM (inactive) | 1.41 µM (inactive) | 3.7 µM (inactive) | 1.25 µM (inactive) | 1.34 µM (inactive) | 1.3 µM (inactive)
NC(Cc1ccc(OCc2ccccc2)cn1)C(=O)O (stereo not drawn) | > 100 µM (inactive) | > 100 µM (inactive) | > 100 µM (inactive) | > 100 µM (inactive) | > 100 µM (inactive) | > 100 µM (inactive) | > 100 µM (inactive) | > 100 µM (inactive) | > 100 µM (inactive) | > 100 µM (inactive) | > 100 µM (inactive) | > 100 µM (inactive) | > 100 µM (inactive) | > 100 µM (inactive) | > 100 µM (inactive) | > 100 µM (inactive) | > 100 µM (inactive) | – | > 100 µM (inactive) | > 100 µM (inactive)
Cn1c(-c2ccccc2)cc(-c2ccc3c(c2)OCO3)c1-c1ccsc1 | > 100 µM (inactive) | > 100 µM (inactive) | > 100 µM (inactive) | > 100 µM (inactive) | > 100 µM (inactive) | > 100 µM (inactive) | > 100 µM (inactive) | > 100 µM (inactive) | > 100 µM (inactive) | > 100 µM (inactive) | – | > 100 µM (inactive) | > 100 µM (inactive) | > 100 µM (inactive) | > 100 µM (inactive) | > 100 µM (inactive) | > 100 µM (inactive) | > 100 µM (inactive) | > 100 µM (inactive) | > 100 µM (inactive)
Cc1cc(S(=O)(=O)Nc2nc(N)n(-c3ccccc3)n2)c(S)cc1Cl | > 100 µM (inactive) | > 100 µM (inactive) | > 100 µM (inactive) | > 100 µM (inactive) | > 100 µM (inactive) | > 100 µM (inactive) | > 100 µM (inactive) | > 100 µM (inactive) | > 100 µM (inactive) | > 100 µM (inactive) | > 100 µM (inactive) | > 100 µM (inactive) | > 100 µM (inactive) | > 100 µM (inactive) | > 100 µM (inactive) | > 100 µM (inactive) | – | > 100 µM (inactive) | > 100 µM (inactive) | > 100 µM (inactive)
CCN1/C(=C/C#C/C(C)=C\c2sc3ccccc3[n+]2CC)Sc2ccccc21 | 2.33 µM (inactive) | 3.13 µM (inactive) | 0.482 µM (active) | 2.14 µM (inactive) | 0.222 µM (active) | 0.631 µM (active) | 2.02 µM (inactive) | 2.07 µM (inactive) | 3.53 µM (inactive) | 0.738 µM (active) | 1.75 µM (inactive) | 2.92 µM (inactive) | 2.36 µM (inactive) | – | 1.82 µM (inactive) | 4.05 µM (inactive) | 2.94 µM (inactive) | 10.6 µM (inactive) | 1.35 µM (inactive) | 0.269 µM (active)
CC(C)=CCC/C(C)=C/Cc1cc(/C=C/c2cc(O)c(CC=C(C)C)c(O)c2)cc(O)c1O [MAPPAIN] | 2.31 µM (inactive) | 4.6 µM (inactive) | 0.502 µM (active) | 2.46 µM (inactive) | 0.506 µM (active) | 8.59 µM (inactive) | 2.12 µM (inactive) | 3.6 µM (inactive) | 3.15 µM (inactive) | 3.37 µM (inactive) | 1.76 µM (inactive) | 4.72 µM (inactive) | 2.55 µM (inactive) | – | 3.36 µM (inactive) | 3.45 µM (inactive) | 4.65 µM (inactive) | 8.87 µM (inactive) | 4.18 µM (inactive) | 2.49 µM (inactive)
